Test results published in patent US20240024479A1, “NK CELLS OR T CELLS EXPRESSING CHIMERIC HEMATOPOIETIC GROWTH FACTOR RECEPTORS AND METHODS OF USE” (The United States of America, as represented by the …, priority 2020, published 2024).

How the values were obtained:
Type in all cases: cell-based, human
[1] = test system: c-MPL transduced T cells; experiment: Competitive expansion of c-MPL-transduced primary T cells
Procedure: (§1) In vitro cell expansion cultures: The NK-92 (5×10^4 cell/ml) and KHYG-1 (1×10^4 cell/ml) cells were cultured in 1 ml of complete medium in 24-well plate. […] Trypan blue negative cells were counted every other day. […] For competitive primary NK and T cell expansion assay, all transduced cells (5×10^5/ml for NK and 4×10^5/ml for T cell) containing a mixture of GFP positive (transduced) and GFP negative (untransduced) cells were plated on day 0. Fresh medium with appropriate supplements was replaced every other day for NK cells and only on day 3 for T cell experiment. Viable cells were counted and percentage of GFP^+ cells was acquired on indicated days (NK: day 4 and 6, T: day 3 and 6). The fold change of GFP^+ cells was calculated by multiplying the counted cell number times the fraction GFP^+.

[2] = test system: 721.221; experiment: Flow cytometry based killing assay, c-MPL+ NK-92 effectors vs 721.221; details: c-MPL+ NK-92 with TPO administration
Procedure: (§2) The target cells were labeled with 1 μM cell trace violet in some experiments (Thermo Fisher Scientific). The effector and target cells were incubated together in duplicate wells at specific E:T ratio in complete medium without cytokines for 4 hours (total cell number: 200,000 to 250,000 per well in 96-well plate). 7-AAD and Sphero AccuCount Fluorescent particles (Spherotech, IL) were added before analysis by flow cytometry. The absolute number of viable 7-AAD negative target cells was calculated according to bead numbers added (Cooper et al., Leukemia 32:1970-1983, 2018). The percentage of dead cells was calculated relative to target cell only control wells.

[3] = test system: GFP+ c-MPL+ NK cells; experiment: Competitive expansion of c-MPL-transduced primary NK cells; details: day 6
Procedure: as §1

[4] = test system: c-MPL+ KHYG-1 cells; experiment: In vitro cell expansion of c-MPL+ KHYG-1 cells
Text: (§3) Lentiviral production and transduction: Lentivirus gene expression vectors encoding EGFP-P2A linker-human EPOR or EGFP-P2A-human c-MPL were cloned according to our design by VectorBuilder (TX, USA). Plasmid DNA for the above and pCMV-dR8.2 dvpr and pCMV-VSV-G packaging plasmids was purified using ZymoPUREII-EndoZero plasmid maxiprep kit (Zymo Research, CA). Lentiviral particles were generated with HEK293T cells and Lipofectamine3000 reagent (Thermo Fisher Scientific, MA) following the manufacturers' instructions. Viral supernatant was harvested at 24 and 48 hours, pooled, and concentrated with lenti-X concentrator (Takara Bio, Japan) or by centrifugation at 18,600 rpm for 2 hours at 4° C. […] After 5 days post-transduction, cells were stained and sorted with fluorescence-activated cell sorting (FACS) using a BD FACSAria II to purify GFP^+EPOR^+ and GFP^+c-MPL^+ NK cell populations.
(§4) In vitro cell expansion cultures: The NK-92 (5×10^4 cell/ml) and KHYG-1 (1×10^4 cell/ml) cells were cultured in 1 ml of complete medium in 24-well plate. […] Trypan blue negative cells were counted every other day. […] Viable cells were counted and percentage of GFP^+ cells was acquired on indicated days (NK: day 4 and 6, T: day 3 and 6). The fold change of GFP^+ cells was calculated by multiplying the counted cell number times the fraction GFP^+.

[5] = test system: K562; experiment: Flow cytometry based killing assay, c-MPL+ NK-92 effectors vs K562; details: c-MPL+ NK-92 with TPO administration
Procedure: as §2

[6] = test system: parental NK-92 cell line; experiment: In vitro cell expansion of parental NK-92; details: EPO or TPO administration
Procedure: In vitro cell expansion cultures: The NK-92 (5×10^4 cell/ml) and KHYG-1 (1×10^4 cell/ml) cells were cultured in 1 ml of complete medium in 24-well plate. […] Trypan blue negative cells were counted every other day. […] The short-term cell expansion assay was performed in similar fashion, except cells were initially cultured without IL-2 overnight before adding different cytokines and enumerating the cell number. For competitive primary NK and T cell expansion assay, all transduced cells (5×10^5/ml for NK and 4×10^5/ml for T cell) containing a mixture of GFP positive (transduced) and GFP negative (untransduced) cells were plated on day 0. Fresh medium with appropriate supplements was replaced every other day for NK cells and only on day 3 for T cell experiment. Viable cells were counted and percentage of GFP^+ cells was acquired on indicated days (NK: day 4 and 6, T: day 3 and 6). The fold change of GFP^+ cells was calculated by multiplying the counted cell number times the fraction GFP^+.

[7] = test system: Raji tumor cells; experiment: Flow cytometry based killing assay, c-MPL+ NK-92 effectors vs Raji; details: c-MPL+ NK-92 exposed to TPO+LD IL-2, 4 hours
Procedure: as §2

[8] = test system: untransduced control cells; experiment: Degranulation assay and cytokine production, untransduced control cells; details: TPO administration
Procedure: To examine degranulation, cells were washed after two hours and stained with anti-CD107a (H4A3) (BioLegend). To assay cytokine production, GolgiPlug and GolgiStop (BD Biosciences) were added at manufacturer's recommended concentrations within the first hour of co-culture with K562. After 4 hours, cells were washed and stained for cell surface markers, then stained intracellularly with mAb recognizing TNF-α (Mab 11) and IFN-γ (B27) (BD Biosciences).

[9] = test system: GFP+ MPL+ population; experiment: Parallel in vitro cultures of the mixed transduced NK cells; details: only TPO
[10] = test system: c-MPL+ NK-92 cells; experiment: In vitro cell expansion of c-MPL+ NK-92 cells; details: day 8
Text: as §3, §4

TPO: recombinant human thrombopoietin, ligand of the c-MPL receptor; 50 ng/ml rhTPO (R&D)
GFP fold-expansion of c-MPL transduced T cells ([1]; D6, TPO alone): 5.96 fold
GFP fold-expansion of c-MPL+ activated T cells ([1]; day 6, TPO plus LD IL-2): 11.39 fold
killing of 721.221 tumor targets [2]: no significant killing augmentation
fold change of GFP+ c-MPL+ NK cells ([3]; TPO plus 10 U/ml LD IL-2): 24.3 fold
fold change of GFP+ c-MPL+ NK cells ([3]; TPO+25 U/ml IL-2): 34.1 fold
cell growth of transduced KHYG-1 cells ([4]; TPO alone): insufficient to maintain cell growth
proliferative response of receptor-transduced KHYG-1 NK cells ([4]; TPO with low-dose IL-2 (1 U/ml or 5 U/ml)): synergized
killing of K562 tumor targets [5]: no significant killing augmentation
expansion of the parental NK-92 cell line [6]: did not alter
mean percentage of dead Raji cells ([7]; E:T 1:1): 84%
mean percentage of dead Raji cells ([7]; E:T 10:1): 85%
degranulation or cytokine production of untransduced control cells [8]: no measured effects
GFP+ MPL+ population in parallel cultures [9]: 31%
fold expansion of c-MPL+ NK-92 cells ([10]; TPO alone): 7 fold
fold expansion of c-MPL+ NK-92 cells ([10]; TPO plus 1 U/ml IL-2): 23.25 fold
